Key:
Type in all cases: in vivo
Conditions in all cases: 1000 g/Ha, evaluated after 13 days, glasshouse
[1] = tested on: Setaria faberi (SETFA); assay: Pre-emergence herbicidal activity, percentage damage to SETFA
Experimental: (§1) Seeds of a variety of test species are sown in standard soil in pots Amaranthus palmeri (AMAPA), Amaranthus retroflexus (AMARE), Setaria faberi (SETFA), Echinochloa crus-galli (ECHCG), Ipomoea hederacea (IPOHE),). After cultivation for one day (pre-emergence) or after 8 days cultivation (post-emergence) under controlled conditions in a glasshouse (at 24/160C, day/night; 14 hours light; 65% humidity), the plants are sprayed with an aqueous spray solution derived from the dissolution of the technical active ingredient in a small amount of acetone and a special solvent and emulsifier mixture referred to as IF50 (11.12% Emulsogen EL360 TM+44.44% N-methylpyrrolidone+44.44% Dowanol DPM glycol ether, which was then diluted to required concentration using 0.2% Genapol XO80 (CAS No. 9043-30-5) in water as the diluent. Compounds are applied at the rates stated. The test plants are then grown in a glasshouse under controlled conditions in a glasshouse (at 24/160C, day/night; 14 hours light; 65% humidity) and watered twice daily. After 13 days for pre and post-emergence, the test is evaluated for the percentage damage caused to the plant. The biological activities are shown in the following table on a five-point scale (5=81-100%; 4=61-80%; 3=41-60%; 2=21-40%; 1=0-20%; NT=not tested).

[2] = tested on: Echinochloa crus-galli (ECHCG); assay: Pre-emergence herbicidal activity, percentage damage to ECHCG
Experimental: as §1

[3] = tested on: Amaranthus palmeri (AMAPA); assay: Pre-emergence herbicidal activity, percentage damage to AMAPA
Experimental: as §1

[4] = tested on: Amaranthus retroflexus (AMARE); assay: Pre-emergence herbicidal activity, percentage damage to AMARE
Experimental: as §1

[5] = tested on: Ipomoea hederacea (IPOHE); assay: Pre-emergence herbicidal activity, percentage damage to IPOHE
Experimental: as §1

[6] = tested on: Setaria faberi (SETFA); assay: Post-emergence herbicidal activity, percentage damage to SETFA
Experimental: as §1

[7] = tested on: Echinochloa crus-galli (ECHCG); assay: Post-emergence herbicidal activity, percentage damage to ECHCG
Experimental: as §1

[8] = tested on: Amaranthus palmeri (AMAPA); assay: Post-emergence herbicidal activity, percentage damage to AMAPA
Experimental: as §1

[9] = tested on: Amaranthus retroflexus (AMARE); assay: Post-emergence herbicidal activity, percentage damage to AMARE
Experimental: as §1

[10] = tested on: Ipomoea hederacea (IPOHE); assay: Post-emergence herbicidal activity, percentage damage to IPOHE
Experimental: as §1

Compound | percentage damage caused to the plant (SETFA) [1] | percentage damage caused to the plant (ECHCG) [2] | percentage damage caused to the plant (AMAPA) [3] | percentage damage caused to the plant (AMARE) [4] | percentage damage caused to the plant (IPOHE) [5] | percentage damage caused to the plant (SETFA) [6] | percentage damage caused to the plant (ECHCG) [7] | percentage damage caused to the plant (AMAPA) [8] | percentage damage caused to the plant (AMARE) [9] | percentage damage caused to the plant (IPOHE) [10]
O=C(O)C[C@@H]1[C@@H]2C[C@@H]2C(=O)N1Cc1ccc(Cl)c(F)c1 (relative stereo) [A.79, 2-[(1R*,2R*,5S*)-3-[(3-fluoro-4-chloro)methyl]-4-oxo-3-azabicyclo[3.1.0]hexan-2-yl]acetic acid] | 4 (61-80%) | 2 (21-40%) | 1 (0-20%) | 1 (0-20%) | 1 (0-20%) | 4 (61-80%) | 1 (0-20%) | 1 (0-20%) | 1 (0-20%) | 1 (0-20%)
O=C(O)C[C@@H]1[C@@H]2C[C@@H]2C(=O)N1Cc1ccc(F)c(F)c1 (relative stereo) [A.73, 2-[(1R*,2R*,5S*)-3-[(3,4-difluorophenyl)methyl]-4-oxo-3-azabicyclo[3.1.0]hexan-2-yl]acetic acid] | 5 (81-100%) | 3 (41-60%) | 3 (41-60%) | 4 (61-80%) | 4 (61-80%) | 4 (61-80%) | 3 (41-60%) | 1 (0-20%) | 2 (21-40%) | 1 (0-20%)
O=C(O)C[C@H]1[C@@H]2C[C@@H]2C(=O)N1Cc1cccc(F)c1F (relative stereo) [Compound A.04, 2-[(1R*,2S*,5S*)-3-[(2,3-difluorophenyl)methyl]-4-oxo-3-azabicyclo[3.1.0]hexan-2-yl]acetic acid] | 3 (41-60%) | 2 (21-40%) | 2 (21-40%) | 2 (21-40%) | 1 (0-20%) | 4 (61-80%) | 3 (41-60%) | 1 (0-20%) | 1 (0-20%) | 1 (0-20%)
COC(=O)C[C@@H]1[C@@H]2C[C@@H]2C(=O)N1Cc1cccc(F)c1F (relative stereo) [Compound A.07, methyl 2-[(1R*,2R*,5S*)-3-[(2,3-difluorophenyl)methyl]-4-oxo-3-azabicyclo[3.1.0]hexan-2-yl]acetate] | 5 (81-100%) | 4 (61-80%) | 3 (41-60%) | 4 (61-80%) | 2 (21-40%) | 4 (61-80%) | 3 (41-60%) | 3 (41-60%) | 3 (41-60%) | 3 (41-60%)
